Test results taken from the supplement of paper PMC10307832.

Assays:
Assay in all cases: relative viability (nuclei count vs DMSO), 5 days (fraction); higher = more cells survive
Serdemetan + Tozasertib = compound: c1ccc2c(CCNc3ccc(Nc4ccncc4)cc3)c[nH]c2c1 [Serdemetan] + Cc1cc(Nc2cc(N3CCN(C)CC3)nc(Sc3ccc(NC(=O)C4CC4)cc3)n2)n[nH]1 [Tozasertib] (partner 0.1 µM)
In short: (§1)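 A single step with final 0.05% Triton X-100, 1% formaldehyde and 1 ug/ml Hoechst fixed the cells and stained nuclei 5 days after treatment. Lung cancer cell lines in 1536-well plates had been treated by pin tool the day after seeding with one drug alone or a fixed anchor-drug dose plus five library-drug doses (not always all listed) in √10 steps, and nuclei were counted on 4× images. Relative viability is the ratio of nuclei in treated wells to nuclei in vehicle wells, taken as the median of duplicate plates.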

Serdemetan + Bortezomib = compound: c1ccc2c(CCNc3ccc(Nc4ccncc4)cc3)c[nH]c2c1 [Serdemetan] + CC(C)C[C@H](NC(=O)[C@H](Cc1ccccc1)NC(=O)c1cnccn1)B(O)O [Bortezomib] (partner 0.002 µM)
In short: as §1

Serdemetan + Pemetrexed = compound: c1ccc2c(CCNc3ccc(Nc4ccncc4)cc3)c[nH]c2c1 [Serdemetan] + Nc1nc2[nH]cc(CCc3ccc(C(=O)N[C@@H](CCC(=O)O)C(=O)O)cc3)c2c(=O)[nH]1 [Pemetrexed] (partner 0.2 µM)
In short: as §1

Selisistat + Dasatinib = compound: C1CC(C2=C(C1)C3=C(N2)C=CC(=C3)Cl)C(=O)N [Selisistat] + Cc1nc(Nc2ncc(C(=O)Nc3c(C)cccc3Cl)s2)cc(N2CCN(CCO)CC2)n1 [Dasatinib] (partner 0.075 µM)
In short: as §1

Row | Cell Line | relative viability (Serdemetan + Tozasertib; first compound 0.04 µM) | relative viability (Serdemetan + Tozasertib; first compound 0.1265 µM) | relative viability (Serdemetan + Tozasertib; first compound 0.4 µM) | relative viability (Serdemetan + Tozasertib; first compound 1.265 µM) | relative viability (Serdemetan + Tozasertib; first compound 4 µM) | relative viability (Serdemetan + Bortezomib; first compound 0.04 µM) | relative viability (Serdemetan + Bortezomib; first compound 0.1265 µM) | relative viability (Serdemetan + Bortezomib; first compound 0.4 µM) | relative viability (Serdemetan + Bortezomib; first compound 1.265 µM) | relative viability (Serdemetan + Bortezomib; first compound 4 µM) | relative viability (Serdemetan + Pemetrexed; first compound 0.04 µM) | relative viability (Serdemetan + Pemetrexed; first compound 0.1265 µM) | relative viability (Serdemetan + Pemetrexed; first compound 4 µM) | relative viability (Selisistat + Dasatinib; first compound 0.4 µM) | relative viability (Selisistat + Dasatinib; first compound 1.265 µM) | relative viability (Selisistat + Dasatinib; first compound 4 µM) | relative viability (Selisistat + Dasatinib; first compound 12.65 µM) | relative viability (Selisistat + Dasatinib; first compound 40 µM) | relative viability (Serdemetan + Pemetrexed; first compound 0.4 µM) | relative viability (Serdemetan + Pemetrexed; first compound 1.265 µM)
1 | LOU-NH91 | 0.692 | 0.654 | 0.442 | 0.509 | 0.684 | 0.536 | 0.485 | 0.412 | 0.409 | 0.433 | 0.394 | 0.383 | 0.419 | 0.611 | 0.54 | 0.515 | 0.534 | 0.598 |  | 
2 | LU99A | 0.321 | 0.297 | 0.265 | 0.183 | 0.185 | 1.19 | 1.08 | 1.12 | 0.4 | 0.255 | 0.177 | 0.182 | 0.16 | 0.46 | 0.634 | 0.606 | 0.546 | 0.655 | 0.345 | 0.15
3 | LXF-289 | 0.213 | 0.21 | 0.171 | 0.164 | 0.118 | 0.954 | 1.01 | 0.944 | 0.951 | 0.894 | 0.894 | 0.989 | 0.795 | 0.286 | 0.239 | 0.305 | 0.245 | 0.303 | 0.86 | 0.76
4 | NCI-H23 | 0.436 | 0.413 | 0.358 | 0.305 | 0.265 | 1.1 | 1.07 | 1.05 | 0.81 | 1.09 | 0.649 | 0.789 | 0.763 | 0.784 | 0.95 | 0.571 | 0.8 | 0.772 | 0.722 | 
5 | NCI-H322M | 0.447 | 0.457 | 0.484 | 0.35 | 0.437 | 1.32 | 1.26 | 1.06 | 1.2 | 1.36 | 0.576 | 0.583 | 0.628 | 0.266 | 0.259 | 0.243 | 0.26 | 0.26 | 0.622 | 0.645
6 | NCI-H441 | 0.719 | 0.669 | 0.687 | 0.709 | 0.605 | 0.459 | 0.784 | 0.906 | 0.569 | 0.643 | 0.262 | 0.293 | 0.225 | 0.623 | 0.671 | 0.427 | 0.549 | 0.62 | 0.257 | 0.202
7 | NCI-H460 | 0.647 | 0.403 | 0.399 | 0.402 | 0.12 | 1.05 | 1.1 | 1.19 | 0.561 | 0.1 | 0.0612 | 0.0565 | 0.064 | 0.61 | 0.513 | 0.196 | 0.478 | 0.477 | 0.0655 | 0.0326
8 | NCI-H520 | 0.42 | 0.413 | 0.441 | 0.329 | 0.313 | 0.752 | 0.561 | 0.615 | 0.476 | 0.572 | 0.712 | 0.68 | 0.542 | 0.185 | 0.201 | 0.327 | 0.216 | 0.195 | 0.753 | 0.674
9 | NCI-H596 | 0.825 | 0.787 | 0.774 | 0.513 | 0.34 | 1.17 | 0.606 | 1.11 | 0.649 | 0.818 | 0.45 | 0.486 | 0.492 | 0.673 | 0.53 | 0.493 | 0.707 | 0.545 | 0.515 | 0.463
10 | NCI-H647 | 0.355 | 0.291 | 0.226 | 0.287 | 0.223 | 0.95 | 0.914 | 0.95 | 0.559 | 0.47 | 0.164 | 0.172 | 0.137 | 0.229 | 0.186 | 0.176 | 0.154 | 0.218 | 0.175 | 0.179
11 | NCI-H650 | 0.661 | 0.679 | 0.803 | 0.642 | 0.581 | 0.673 | 0.679 | 0.872 | 0.674 | 0.848 | 0.895 | 0.903 | 0.87 | 0.427 | 0.469 | 0.52 | 0.382 | 0.493 | 0.992 | 0.812
12 | NCI-H661 | 0.362 | 0.381 | 0.385 | 0.308 | 0.352 | 0.78 | 0.909 | 0.766 | 0.84 | 0.74 | 0.968 | 0.902 | 0.806 | 0.806 | 0.94 | 0.57 | 0.726 | 0.694 | 0.877 | 0.786
13 | NCI-H838 | 0.282 | 0.246 | 0.234 | 0.231 | 0.232 | 0.869 | 0.739 | 0.848 | 0.74 | 0.856 | 0.232 | 0.263 | 0.235 | 0.273 | 0.293 | 0.263 | 0.279 | 0.285 | 0.249 | 0.209
14 | NCI-H1355 | 0.489 | 0.508 | 0.443 | 0.381 | 0.385 | 1.23 | 1.19 | 1.12 | 1.17 | 1.1 | 1.07 | 1.02 | 0.954 | 0.684 | 0.688 | 0.519 | 0.65 | 0.789 | 0.949 | 1.05
15 | NCI-H1437 | 0.375 | 0.399 | 0.383 | 0.331 | 0.285 | 0.545 | 0.497 | 0.471 | 0.46 | 0.547 | 0.287 | 0.327 | 0.252 | 0.399 | 0.349 |  | 0.331 | 0.514 | 0.316 | 0.264
16 | NCI-H1650 | 0.415 | 0.483 | 0.405 | 0.389 | 0.351 | 0.196 | 0.223 | 0.188 | 0.171 | 0.188 | 0.374 | 0.328 | 0.264 | 0.298 | 0.297 | 0.295 | 0.286 | 0.313 | 0.371 | 0.343
